Compound in test [1]: CS(=O)(=O)CCNCc1ccc(-c2ccc3ncnc(Nc4ccc(OCc5cccc(F)c5)c(Cl)c4)c3c2)o1 [LAPATINIB]
Kind of test: surviving fraction relative to DMSO-only wells; higher = less growth inhibition. The note with it: exposure time: 5 days. The method, boiled down:
(§1)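 Viability values are CellTiter-Glo luminescence readings, given as surviving fraction against the median of DMSO-only wells. The readings were taken after 10 minutes at room temperature, following five days of continuous exposure to inhibitors at 0.5, 1, 5, 10, 50, 100, 500 and 1000 nM that began 24 hours after log-phase tumour cell lines were seeded at 250–500 cells per well in 384-well plates. Every line was screened three times and kept only if replicate Pearson r >0.7 and median Z' >0.3.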

Compound in test [2]: Nc1ncn([C@H]2C[C@H](O)[C@@H](CO)O2)c(=O)n1 [DECITABINE]
Described as above. The note with it: exposure time: 5 days. The method, boiled down:
as §1

± gives the standard deviation of the averaged measurements.

Consider G292 BONE, for which the surviving fraction in test [1] (0.5 nM) came to 0.973 ± 0.011; in test [1] (1 nM), 1.02 ± 0.052; in test [1] (5 nM), 1.03 ± 0.022; in test [1] (10 nM), 1.03 ± 0.026; in test [1] (50 nM) it was 1.02 ± 0.029; in test [1] (100 nM), 0.999 ± 0.02. Moreover, the surviving fraction worked out at 0.967 ± 0.077 in test [1] (500 nM); 0.964 ± 0.015 in test [1] (1000 nM); 0.958 ± 0.057 in test [2] (0.5 nM); 0.953 ± 0.026 in test [2] (1 nM); 0.924 ± 0.037 in test [2] (5 nM); 0.922 ± 0.025 in test [2] (10 nM). Further, the surviving fraction is 0.711 ± 0.0099 in test [2] (50 nM), 0.678 ± 0.043 in test [2] (100 nM), 0.571 ± 0.039 in test [2] (500 nM) and 0.543 ± 0.026 in test [2] (1000 nM).

Turning to HCC70 BREAST, the surviving fraction in test [1] (0.5 nM) was determined as 1.05 ± 0.075; in test [1] (1 nM) it was 1.1 ± 0.076; in test [1] (5 nM), 1.16 ± 0.069; in test [1] (10 nM), 1.15 ± 0.036; in test [1] (50 nM) it was 1.05 ± 0.07; in test [1] (100 nM), 1.13 ± 0.044. Also, the surviving fraction in test [1] (500 nM) turned out to be 0.99 ± 0.047; in test [1] (1000 nM), 0.941 ± 0.058; in test [2] (0.5 nM) it was 1.07 ± 0.12; in test [2] (1 nM), 0.991 ± 0.14; in test [2] (5 nM) it was 1.1 ± 0.05; in test [2] (10 nM) it was 1.02 ± 0.092. The surviving fraction in test [2] (50 nM) is 0.967 ± 0.024; in test [2] (100 nM), 0.956 ± 0.087; in test [2] (500 nM), 0.844 ± 0.026; in test [2] (1000 nM), 0.679 ± 0.076.

HS57T BREAST: the surviving fraction in test [1] (0.5 nM) was 0.975 ± 0.054; in test [1] (1 nM) it was 1 ± 0.022; in test [1] (5 nM) it was 1.07 ± 0.074; in test [1] (50 nM), 1.03 ± 0.044; in test [1] (100 nM) it was 1.09 ± 0.044; in test [1] (500 nM), 0.97 ± 0.04. For the same test system, the surviving fraction is 0.933 ± 0.037 in test [1] (1000 nM); 0.976 ± 0.049 in test [2] (0.5 nM); 0.99 ± 0.026 in test [2] (1 nM); 1.06 ± 0.027 in test [2] (5 nM); 0.972 ± 0.022 in test [2] (10 nM); 0.923 ± 0.086 in test [2] (50 nM). The figures for the surviving fraction in test [2] (100 nM), in test [2] (500 nM) and in test [2] (1000 nM) were 0.904 ± 0.091, 0.767 ± 0.045 and 0.696 ± 0.078, respectively.

On to HMT3552 BREAST, for which the surviving fraction was determined as 1.03 ± 0.033 in test [1] (0.5 nM); 1.02 ± 0.073 in test [1] (1 nM); 1.06 ± 0.026 in test [1] (5 nM); 1.04 ± 0.075 in test [1] (10 nM); 1.02 ± 0.014 in test [1] (50 nM); 1.05 ± 0.083 in test [1] (100 nM). Besides, the surviving fraction in test [1] (500 nM) turned out to be 0.861 ± 0.12; in test [1] (1000 nM), 0.944 ± 0.074; in test [2] (0.5 nM), 1.06 ± 0.029; in test [2] (1 nM), 1.024 ± 0.01; in test [2] (5 nM) it was 1.09 ± 0.05; in test [2] (10 nM), 1.02 ± 0.057. Besides, the surviving fraction in test [2] (50 nM) was 1.27 ± 0.029; in test [2] (100 nM), 1.21 ± 0.037; in test [2] (500 nM), 1.18 ± 0.06; in test [2] (1000 nM), 1.14 ± 0.028.

Turning to HS578T BREAST, the surviving fraction amounted to 1.19 ± 0.11 in test [1] (0.5 nM); 1.03 ± 0.045 in test [1] (1 nM); 1.11 ± 0.15 in test [1] (5 nM); 0.871 ± 0.14 in test [1] (10 nM); 1.04 ± 0.048 in test [1] (50 nM); 1.08 ± 0.013 in test [1] (100 nM). Besides, the surviving fraction in test [1] (500 nM) stood at 0.941 ± 0.052; in test [1] (1000 nM), 1.05 ± 0.15; in test [2] (0.5 nM), 0.882 ± 0.16; in test [2] (1 nM), 0.838 ± 0.018; in test [2] (5 nM), 0.812 ± 0.079; in test [2] (10 nM) it was 0.837 ± 0.077. The surviving fraction in test [2] (50 nM) amounted to 0.98 ± 0.071; in test [2] (100 nM), 0.943 ± 0.2; in test [2] (500 nM), 0.905 ± 0.08; in test [2] (1000 nM), 1.02 ± 0.064.

Turning to HCC38 BREAST, the surviving fraction in test [1] (0.5 nM) was 1.03 ± 0.17; in test [1] (1 nM), 0.933 ± 0.042; in test [1] (5 nM), 1 ± 0.35; in test [1] (10 nM), 1.09 ± 0.14; in test [1] (50 nM), 0.873 ± 0.13; in test [1] (100 nM), 0.776 ± 0.097. Further, the surviving fraction in test [1] (500 nM) was found to be 0.757 ± 0.13; in test [1] (1000 nM), 0.794 ± 0.19; in test [2] (0.5 nM) it was 1.37 ± 0.092; in test [2] (1 nM), 1.14 ± 0.13; in test [2] (5 nM), 1.13 ± 0.098; in test [2] (10 nM) it was 0.937 ± 0.044. For the same test system, the surviving fraction in test [2] (50 nM) is 0.781 ± 0.019; in test [2] (100 nM), 0.656 ± 0.027; in test [2] (500 nM), 0.441 ± 0.0081; in test [2] (1000 nM), 0.409 ± 0.064.

HMLE3 BREAST: the surviving fraction in test [1] (0.5 nM) came to 1.04 ± 0.1; in test [1] (1 nM), 1.09 ± 0.074; in test [1] (5 nM) it was 1.05 ± 0.065; in test [1] (10 nM) it was 1.07 ± 0.098; in test [1] (50 nM), 1.04 ± 0.041; in test [1] (100 nM) it was 1.14 ± 0.13. Also, the surviving fraction in test [1] (500 nM) is 0.992 ± 0.084; in test [1] (1000 nM), 0.966 ± 0.046; in test [2] (0.5 nM), 1.1 ± 0.049; in test [2] (1 nM) it was 1.03 ± 0.082; in test [2] (5 nM), 1.14 ± 0.03; in test [2] (10 nM) it was 1.14 ± 0.058. The surviving fraction in test [2] (50 nM) is 0.95 ± 0.12; in test [2] (100 nM), 0.922 ± 0.051; in test [2] (500 nM), 0.605 ± 0.055; in test [2] (1000 nM), 0.551 ± 0.054.

For CCK81 LARGE INTESTINE, the surviving fraction in test [1] (0.5 nM) was 0.728 ± 0.083; in test [1] (1 nM) it was 0.751 ± 0.054; in test [1] (5 nM) it was 0.826 ± 0.17; in test [1] (10 nM) it was 0.751 ± 0.074; in test [1] (50 nM), 0.65 ± 0.16; in test [1] (100 nM) it was 0.536 ± 0.024. Moreover, the surviving fraction was determined as 0.082 ± 0.017 in test [1] (500 nM); 0.0653 ± 0.0081 in test [1] (1000 nM); 0.759 ± 0.099 in test [2] (0.5 nM); 0.761 ± 0.034 in test [2] (1 nM); 0.578 ± 0.11 in test [2] (5 nM); 0.707 ± 0.12 in test [2] (10 nM). Moreover, the surviving fraction in test [2] (50 nM) came to 0.367 ± 0.058; in test [2] (100 nM), 0.348 ± 0.035; in test [2] (500 nM), 0.308 ± 0.035; in test [2] (1000 nM) it was 0.286 ± 0.094.
